{"source": "paper PMC8648872", "about": "“A host-directed macrocyclic peptide therapeutic for MDR gram negative bacterial infections” (Scientific Reports, 2021)", "key": {"E. coli BAA-2340 (KPC-2)": {"test_system": "E. coli BAA-2340 (KPC-2)", "test": "microbe, parasite or virus in culture", "format": "cell-based", "conditions": "E. coli BAA-2340, KPC-2", "protocol": "(§1) Bacterial strains were obtained from American Type Culture Collection. K. pneumoniae strains included BAA-1705 (blaKPC-2, hypermucoid), BAA-2146 (blaNDM-1), BAA-700603 (SHV-18, extended spectrum β-lactamase, ESBL), and BAA-1706 (non-CRE reference strain). E. coli strains included BAA-2340 (blaKPC-2), BAA-2471 (blaNDM-1), and ML35 (non-CRE reference strain).\n(§2) Minimum inhibitory concentration (MIC) assays were performed ± 50% heat-inactivated mouse serum using Clinical and Laboratory Standards Institute (CLSI; document M07-A9) protocols. Bacteria (5 × 10^5 CFU/ml) were incubated with antibiotics or peptide for 20 h at 37 °C, and bacterial growth was determined by A620 using a SpectraMax M5e plate reader."}, "E. coli BAA-2471 (NDM-1)": {"test_system": "E. coli BAA-2471 (NDM-1)", "test": "microbe, parasite or virus in culture", "format": "cell-based", "protocol": "as §1, §2"}, "E. coli ML35": {"test_system": "E. coli ML35", "test": "microbe, parasite or virus in culture", "format": "cell-based", "conditions": "E. coli ML35, no MDR factor", "protocol": "as §1, §2"}, "[1]": {"test_system": "K. pneumoniae 700603 (ESBL)", "test": "microbe, parasite or virus in culture", "format": "cell-based", "protocol": "as §1, §2"}, "[2]": {"test_system": "K. pneumoniae BAA-1705 (KPC-2)", "test": "microbe, parasite or virus in culture", "format": "cell-based", "conditions": "20 h, 37 °C", "protocol": "as §1, §2"}, "K. pneumoniae BAA-1706": {"test_system": "K. pneumoniae BAA-1706", "test": "microbe, parasite or virus in culture", "format": "cell-based", "conditions": "K. pneumoniae BAA-1706, no MDR factor", "protocol": "as §1, §2"}, "[3]": {"test_system": "K. pneumoniae BAA-2146 (NDM-1)", "test": "microbe, parasite or virus in culture", "format": "cell-based", "protocol": "as §1, §2"}, "RAW 264.7 macrophages": {"test_system": "RAW 264.7 macrophages", "test": "TNF release by LPS-stimulated RAW 264.7 cells", "format": "cell-based, mouse", "conditions": "RAW 264.7, 5 ng/ml LPS, 2 h, ELISA", "protocol": "Mouse RAW 264.7 macrophages (RAW cells; ATCC, TIB-71) were grown in Dulbecco’s Modified Eagle Medium (DMEM) with 10% heat-inactivated fetal bovine serum (HI-FBS) with 100 U/ml penicillin/streptomycin, and suspended to 2–3 × 10^6 cells/ml in fresh media before use.\nRAW cells were seeded into 48-well tissue culture plates at 1–1.5 × 10^5 cells/well and allowed to adhere overnight. Cells were washed twice and suspended in DMEM with 1% FBS with 0–5 µg/ml of MTD12813 immediately followed by addition of 5 ng/ml (25 EU/ml) of E. coli 0111:B4 LPS (Sigma L4391). Plates were incubated for 2 h at 37 °C in 5% CO2. Well contents were removed, clarified by centrifugation, and supernatants frozen at − 80 °C. Supernatant TNF was quantified by mouse TNF ELISA (Invitrogen, Cat #BMS607-3)."}, "[4]": {"test": "LPS neutralization, limulus amebocyte lysate assay", "format": "biochemical", "conditions": "0.5 EU/ml LPS, 0.078–5 μg/ml, 37 °C, 30 min; data not shown", "protocol": "A limulus amebocyte lysate endotoxin detection assay (Pierce A39553) protocol was employed by preincubating 0.5 EU/ml of LPS with either MTD12813, RTD-1, or colistin (0.078–5 μg/ml) in H20 at 37 °C for 30 min followed by quantifying free LPS per manufacturer’s instructions. All samples were compared to a LPS standard curve to determine the degree of LPS neutralization."}, "Kp-1705": {"test_system": "Kp-1705", "test": "Viability and replication fitness of Kp-1705 at sub-MIC peptide", "format": "cell-based, K. pneumoniae", "conditions": "Kp-1705 (1 x 10^9 CFU/ml), 1 h with 1.25 µg/ml MTD12813; CFU on TSA, growth at A620", "protocol": "Cryopreserved Kp-1705 was suspended in PBS to a density of ca. 1 × 10^9 CFU/ml, and incubated with saline or 1.25 µg/ml MTD12813 at room temperature for 1 h. Mice (n = 26) were then infected i.p. with 500 µl of saline- or MTD12813- pretreated Kp-1705, and a third cohort (n = 12) received 500 µl i.p. of 1.25 µg/ml MTD12813 immediately following infection with saline treated Kp-1705. Five mice from each cohort were euthanized 4 h p.i., and peritoneal lavage was collected for bacterial burden determination and cytospin preparation. In vitro antibacterial activity of MTD12813 (1.25 μg/ml) -treated cells (1 h; 37 °C) was determined by plating saline or peptide treated cells on TSA plates. Growth kinetics of saline and MTD12813-treated cells was determined by diluting samples from the 1 h incubation mixtures 1:40 into TSB and monitoring growth (620 nm) for 5.5 h at 37 °C. Antibacterial activity of MTD12813 in PF was determined by i.p. injection of naïve male BALB/c mice (n = 5 per group) with 1.25 mg/kg of MTD12813 or saline i.p. (10 ml/kg). […] Peritoneal fluid was clarified by centrifugation at 1200×g and an aliquot used to quantify MTD12813 by LC–MS/MS, as described above. Antimicrobial activity was determined by incubating PF (9:1 vol/vol) with Kp-1705 at a final density of 3 × 10^7 CFU/ml. […]\nreplication fitness of Kp-1705. […] (a) Bacterial viability was quantified as CFU on TSA plates. […]"}, "[5]": {"conditions": "50% heat inactivated mouse serum"}, "[6]": {"conditions": "CLSI, 20 h, 37 °C, A620, no serum"}}, "note": "Where a SMILES comes first, the peptide text is derived from it. Bridges are numbered along the chain shown (N, C = ends).", "data": [{"smiles": "CC[C@H](C)[C@@H]1NC(=O)[C@@H]2CSSC[C@H](NC(=O)[C@H]([C@@H](C)CC)NC(=O)[C@@H]3CSSC[C@H](NC1=O)C(=O)N[C@@H](C(C)C)C(=O)NCC(=O)N[C@@H](CCCNC(=N)N)C(=O)NCC(=O)N3)C(=O)N[C@@H](C(C)C)C(=O)N[C@@H](CCCNC(=N)N)C(=O)N[C@@H](CCCNC(=N)N)C(=O)N[C@@H](CCCNC(=N)N)C(=O)N2", "note": "[MTD12813] (cyclo(CICVGRGCICVRRR); disulfide 1-10, 3-8)", "values": [{"measurement": "MIC", "setting": "E. coli BAA-2340 (KPC-2); [5]", "value": "> 100", "unit": "µg/mL"}, {"measurement": "MIC", "setting": "E. coli BAA-2340 (KPC-2); [6]", "value": 6.25, "unit": "µg/mL"}, {"measurement": "MIC", "setting": "E. coli BAA-2471 (NDM-1); [5]", "value": 100, "unit": "µg/mL"}, {"measurement": "MIC", "setting": "E. coli BAA-2471 (NDM-1); [6]", "value": 3.13, "unit": "µg/mL"}, {"measurement": "MIC", "setting": "E. coli ML35; [5]", "value": "> 100", "unit": "µg/mL"}, {"measurement": "MIC", "setting": "E. coli ML35; [6]", "value": 3.13, "unit": "µg/mL"}, {"measurement": "MIC", "setting": "[1]; [5]", "value": "> 100", "unit": "µg/mL"}, {"measurement": "MIC", "setting": "[1]; [6]", "value": 6.25, "unit": "µg/mL"}, {"measurement": "MIC", "setting": "[2]; CLSI M07-A9, 5 × 10^5 CFU/ml, A620, no serum", "value": 6.25, "unit": "µg/mL"}, {"measurement": "MIC", "setting": "[2]; in the presence of 50% heat inactivated mouse serum, A620", "value": "> 100", "unit": "µg/mL"}, {"measurement": "MIC", "setting": "K. pneumoniae BAA-1706; [5]", "value": "> 100", "unit": "µg/mL"}, {"measurement": "MIC", "setting": "K. pneumoniae BAA-1706; [6]", "value": 3.13, "unit": "µg/mL"}, {"measurement": "MIC", "setting": "[3]; [5]", "value": "> 100", "unit": "µg/mL"}, {"measurement": "MIC", "setting": "[3]; [6]", "value": 6.25, "unit": "µg/mL"}, {"measurement": "concentration for 50% TNF suppression relative to RTD-1", "setting": "RAW 264.7 macrophages", "value": "ca. fourfold lower concentration than RTD-1"}, {"measurement": "LPS inhibition (neutralization)", "setting": "[4]", "value": "No LPS inhibition"}, {"measurement": "bacterial viability and replication fitness", "setting": "Kp-1705", "value": "no effect on bacterial viability or replication fitness"}]}]}
